Where a chain is given by its changes, count along the chain named.
How the values were obtained:
[1] = tested on: HepG2; test: STAT-responsive luciferase reporter in HepG2 cells without transfected receptor; type: cell-based, human; conditions: HepG2 transfected with STAT-responsive luciferase reporter only, no TPO receptor
Procedure: (§1) International Application No. PCT/US99/30371, published as WO 00/35446 on Jun. 22, 2000, discloses that the TPO receptor can be activated by small molecule ligands of Formula (I).
(§2) In determining the efficacy and potency of the presently invented compounds as agonists of dimeric cell-surface receptors, a luciferase reporter gene assay configured in HepG2 cells was utilized (see Tian et al., Science 1998, 281, 257-259).
HepG2 cells were plated in 24-well plates in triplicates for overnight. The cells were then transfected with the indicated receptor construct, a GAS response element containing luciferase reporter, 8×118-TkLUC and STAT5b expression vector (a gift of Dr. James Ihle, Memphis, Tenn.) by Superfect method (QIAGEN, Valencia, Calif.) as instructed by the manufacturer. After an overnight recovery, the transfected cells were treated with 0.1% DMSO, TPO or compound of Example 4 at the indicated concentrations for 4-5 hrs. The cells were then lysed and the level of luciferase expression was measured by a plate reader.

[2] = target: T1, human TPO receptor (Homo sapiens, UniProt P40238); test: luciferase reporter in HepG2 cells cotransfected with human TPO receptor; type: cell-based; conditions: HepG2 cotransfected with human TPO receptor expression vector and reporter
T1 construct: expressed in transfected cells; host or cells: HepG2
T1 sequence (P40238 26-635): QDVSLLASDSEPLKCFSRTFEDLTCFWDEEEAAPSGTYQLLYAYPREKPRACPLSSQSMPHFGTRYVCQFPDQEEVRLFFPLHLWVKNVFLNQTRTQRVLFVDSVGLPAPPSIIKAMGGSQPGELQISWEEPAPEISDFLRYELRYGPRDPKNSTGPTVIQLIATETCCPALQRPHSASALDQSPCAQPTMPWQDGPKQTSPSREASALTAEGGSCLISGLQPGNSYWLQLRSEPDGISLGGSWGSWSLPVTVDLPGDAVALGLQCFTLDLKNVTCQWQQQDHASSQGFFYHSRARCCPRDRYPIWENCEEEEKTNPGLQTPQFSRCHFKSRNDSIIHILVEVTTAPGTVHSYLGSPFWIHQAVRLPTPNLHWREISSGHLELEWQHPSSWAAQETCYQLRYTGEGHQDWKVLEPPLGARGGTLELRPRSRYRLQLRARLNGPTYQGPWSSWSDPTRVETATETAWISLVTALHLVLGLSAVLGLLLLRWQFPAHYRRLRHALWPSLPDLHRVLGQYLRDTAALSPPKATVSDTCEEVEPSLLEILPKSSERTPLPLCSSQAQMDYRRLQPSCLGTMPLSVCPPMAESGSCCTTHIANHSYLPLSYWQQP
Text: as §1, §2
Human Tpo receptor (hMPL) was cloned from HEL 92.1.7 cells (ATCC, Rockville, Md.) by PCR (forward primer: 5′-ACGAAGCTTAGCCAAGATGTCTCCTTGCTGGCAT-3′ and reverse primer: 5′-AGCCTCGAGTCAAGGCTGCTGCCAATAGCT-3′). The cloned full-length cDNA was confirmed by DNA sequencing analysis, then subcloned into HindIII-XhoI digested pSSF vector. The cynomolgous Tpo-R (cMPL) was cloned from bone marrow cDNA using the human 5′ and 3′ terminal coding sequences. The full-length cDNA was sequenced and subcloned into EcoRI digested pCDNA3. 1 (+) vector (Invitrogen, San Diego, Calif.). […]
HepG2 cells were plated in 24-well plates in triplicates for overnight. […] The cells were then lysed and the level of luciferase expression was measured by a plate reader.

[3] = target: T2, human TPO receptor H499L (Homo sapiens, UniProt P40238, H499L); test: luciferase reporter in HepG2 cells, H499L point mutant of human TPO receptor; type: cell-based; conditions: H499L point mutation in the human TPO receptor
T2 construct: expressed in transfected cells; host or cells: HepG2
T2 sequence (P40238 26-635 H499L): T1 sequence (P40238 26-635) with H474L
Text: (§3) To further investigate the activity of compounds of Formula (I), cDNA clones for cynomolgous monkey TPO receptor were isolated and sequenced. […] It was clear from these experiments that the compounds of Formula I show strict specificity for the human TPO receptor, a finding also confirmed by STAT activation assays of platelets from human and cyno origin. In order to examine the region of the TPO receptor required for compound activity, a series of human/cyno TPO-R chimeric receptors were transfected into HepG2 cells and tested for their response to compounds of Formula (I). […] To investigate the role of this specific transmembrane domain mutation on the activity of compounds of Formula (I), two point mutations were constructed: a) a H499L change into the human TPO receptor transmembrane domain, creating a receptor with human extracellular and cytoplasmic domains and a cyno receptor transmembrane domain and b) a L499H change into the cyno receptor transmembrane domain creating a chimera with cyno extracellular and cytoplasmic domains and a human transmembrane domain. […] Conversely, the L499H mutation in the cyno TPO receptor allowed it to be activated by both TPO and the compounds with potencies and efficacies similar to those seen on wild type human receptor. […]

[4] = tested on: cyno TPO receptor L499H; test: luciferase reporter in HepG2 cells, L499H point mutant of cyno TPO receptor; type: cell-based, cynomolgous monkey; conditions: L499H mutation in the cyno TPO receptor
Text: as §3

- response, luciferase expression [2]: large increase in luciferase expression
- receptor response [3]: little effect on the response
Substance: TPO: thrombopoietin, natural protein ligand of the TPO receptor
- response, luciferase expression [1]: do not respond
- receptor activation [4]: activated

From US20040053299A1, “Regulated activation of cell-membrane receptors by metal-chelating agonists” (priority 2003, published 2004)
